Bounds are passed on as bounds.

The test system of the assay is STAT1 (phosphorylated at Tyr701) in NCI-H1373 cells. Description: Phospho-STAT1 (Tyr701) LANCE Ultra TR-FRET Detection Assay. Format: cell-based. Conditions: Homo sapiens, 48 hours, induction of pSTAT1, normalized to 10 uM positive control and DMSO, 4-parameter fit, read-out: NH1373 pSTAT1 EC50. As for the experimental part: Phospho-STAT1 (Tyr701 LANCE Ultra TR-FRET Detection Assay
LANCE Ultra phospho-STAT1 (Tyr701) kits available from Perkin Elmer are designed for the detection of phosphorylated STAT1 in cell lysates using a simple, homogeneous LANCE Ultra sandwich assay (Cat. #TRF4028M). This assay is intended for assessing compound induction of endogenous levels of cellular STAT1 (phosphorylated at Tyr701) in NCI-H1373 cells. The NCI-H1373 cells are cultured in RPMI 1640 media containing 10% heat inactivated FBS, GlutaMAX, 1% Penicillin-Streptomycin. An Echo acoustic liquid handler is used to transfer 60 nanoliters of compound dilutions using the Echo Qualified, 384-well polypropylene microplate clear flat bottom source plates into a Greiner (#781080) cell culture microplate. NCI-H1373 cells are seeded into these compound-spotted culture plates at 30,000 cells/well in a 60 uL volume in growth media. The plates are incubated in a 5% CO2 humidified incubator at 37° C. for 48 hours. […] Briefly, 20 μL of supplemented lysis buffer is added to each well and allowed to shake for 1 hour at 400 rpm. Next, 5 ul of remixed antibody solutions (vol/vol) prepared in detection buffer are added to each well and allowed to incubate at room temperature overnight. After spinning the plate down at 300 rpm for […], the plate is read on an EnVision plate reader set up for Eu3+ Cryptate and fluorescence emission is measured at two different wavelengths (665 nm and 620 nm).
(In general: TR-FRET usually uses a lanthanide donor and a delayed reading to cut background.)
`O=C(CCCCCc1cc(C(F)(F)F)c(=O)[nH]n1)N1CCN(c2ncc(C(F)(F)F)cn2)CC1` [Example 2, 6-(6-oxo-6-(4-(5-(trifluoromethyl)pyrimidin-2-yl)piperazin-1-yl)hexyl)-4-(trifluoromethyl)pyridazin-3(2H)-one]: the EC50 (commonly the midpoint of the concentration-response curve) was at least 10 µM.
As for `O=C(CCc1ccccc1-c1cc(C(F)(F)F)c(=O)[nH]n1)N1CCN(c2ncc(C(F)(F)F)cn2)CC1` [Example 3, 6-(2-(3-oxo-3-(4-(5-(trifluoromethyl)pyrimidin-2-yl)piperazin-1-yl)propyl)phenyl)-4-(trifluoromethyl)pyridazin-3(2H)-one], the figure is at least 10 µM.
Take `O=C(CCCc1ccccc1-c1cc(C(F)(F)F)c(=O)[nH]n1)N1CCN(c2ncc(C(F)(F)F)cn2)CC1` [Example 5, 6-(2-(4-oxo-4-(4-(5-(trifluoromethyl)pyrimidin-2-yl)piperazin-1-yl)butyl)phenyl)-4-(trifluoromethyl)pyridazin-3(2H)-one]: the EC50 is at least 10 µM.
As to `CC(C)(CCCc1cc(C(F)(F)F)c(=O)[nH]n1)C(=O)N1CCN(c2ncc(C(F)(F)F)cn2)CC1` [Example 10, 6-(4,4-dimethyl-5-oxo-5-(4-(5-(trifluoromethyl)pyrimidin-2-yl)piperazin-1-yl)pentyl)-4-(trifluoromethyl)pyridazin-3(2H)-one], the EC50 is at least 10 µM.
With `O=C(c1cccc(Oc2cc(C(F)(F)F)c(=O)[nH]n2)c1)N1CCN(c2ncc(C(F)(F)F)cn2)CC1` [Example 35, 4-(trifluoromethyl)-6-(3-(4-(5-(trifluoromethyl)pyrimidin-2-yl)piperazine-1-carbonyl)phenoxy)pyridazin-3(2H)-one], the concentration giving a half-maximal response (EC50) was at least 10 µM.
With `O=C(CCCNc1c[nH]c(=O)c(C(F)(F)F)c1)N1CCN(c2ncc(C(F)(F)F)cn2)CC1` [Example 41, 5-((4-oxo-4-(4-(5-(trifluoromethyl)pyrimidin-2-yl)piperazin-1-yl)butyl)amino)-3-(trifluoromethyl)pyridin-2(1H)-one], the EC50 is at least 10 µM.
With `O=C([C@H]1CN(c2cc(C(F)(F)F)c(=O)[nH]n2)CCO1)N1CCN(c2ncc(C(F)(F)F)cn2)CC1` [Example 45, (R)-4-(trifluoromethyl)-6-(2-(4-(5-(trifluoromethyl)pyrimidin-2-yl)piperazine-1-carbonyl)morpholino)pyridazin-3(2H)-one] the figure was at least 10 µM; with `O=c1[nH]nc(N[C@]23CO[C@](C(=O)N4CCN(c5ncc(C(F)(F)F)cn5)CC4)(C2)C3)cc1C(F)(F)F` [Example 46, 5-(trifluoromethyl)-3-[[1-[4-[5-(trifluoromethyl)pyrimidin-2-yl]piperazine-1-carbonyl]-2-oxabicyclo[2.1.1]hexan-4-yl]amino]-1H-pyridazin-6-one], at least 10 µM.
`O=c1[nH]nc(N[C@]23CC[C@](C(=O)N4CCN(c5ncc(C(F)(F)F)cn5)CC4)(C2)C3)cc1C(F)(F)F` [Example 48, 5-(trifluoromethyl)-3-[[4-[4-[5-(trifluoromethyl)pyrimidin-2-yl]piperazine-1-carbonyl]-1-bicyclo[2.1.1]hexanyl]amino]-1H-pyridazin-6-one]: the EC50 was at least 10 µM.
Regarding `O=c1[nH]nc(NCC2(N3CCN(c4ncc(C(F)(F)F)cn4)CC3)COC2)cc1C(F)(F)F` [Example 59, 5-(trifluoromethyl)-3-[[3-[4-[5-(trifluoromethyl)pyrimidin-2-yl]piperazin-1-yl]oxetan-3-yl]methylamino]-1H-pyridazin-6-one], the EC50 is at least 10 µM.
Regarding `O=C([C@H]1CC[C@@H](Nc2cc(C(F)(F)F)c(=O)[nH]n2)C1)N1CCN(c2ncc(C(F)(F)F)cn2)CC1` [Example 63, 5-(trifluoromethyl)-3-[[(1R,3S)-3-[4-[5-(trifluoromethyl)pyrimidin-2-yl]piperazine-1-carbonyl]cyclopentyl]amino]-1H-pyridazin-6-one], the EC50 is at least 10 µM.

The values above are taken from US20230183216A1, “PYRIDIZIN-3(2H)-ONE DERIVATIVES” (Gilead Sciences, Inc., priority 2021, published 2023).
